For series [1], the system named is anchorage-independent colony formation. The experiment in a line: Soft agarose colony formation (SACF), 3-D growth. It is filed as cell-based. Conditions: for inhibition in 3-D growth (SACF) as compared to phenytoin: same concentration as 2-D.
The test system of the next series is DU-145. The series can be described thus: Long-term growth assay (crystal violet), DU-145. To be noted: Homo sapiens, DU-145, 120 h; day 5; read-out: Day Five Effects on Cell line IC50 (μM) ± S.E.M., DU-145. It counts as cell-based. Here is the method: (§1) C4-2 cells were plated at cell densities established previously to reach saturation at day 7. The cells were allowed to recover overnight before a media change with the analogues (all at 40 μM) was performed. The assays were terminated at day 1, 3, 5 and 7. Media changes were performed on day 0, 2, 4 and 6 with fresh analogues added each time. The cells were then fixed with glutaraldehyde and stained with crystal violet. The dye is then eluted in Sorenson's solution and the absorbance read at 540 nm. […] These assays were repeated for DU145, PC-3 and the paired metastatic cell line PC-3M. The data were normalized to the day 7 DMSO control for each cell line to allow for direct cell:cell comparison.

Series [2] deals with PSA secretion by PCa C4-2 cells. The series can be described thus: PSA secretion by PCa C4-2 cells. Conditions: for decrease of PSA secretion on a per cell basis: 40 μM. It counts as cell-based, human. The procedure: PSA levels are clinically important in following tumor progression and burden. Sodium channel blockers 1, 2 and 44 (at 40 μM) and phenyloin at (100 μM) were investigated for their ability to suppress PSA secretion by PCa C4-2 cells.

In a further series the test system is PC-3M. The experiment in a line: Long-term growth assay (crystal violet), PC-3M. It counts as cell-based. To be noted: Homo sapiens, 120 h, day 5, read-out: Day Five Effects on Cell line IC50 (μM) ± S.E.M., PC-3M. Here is the method:
as §1

The test system of a further series is C4-2 cells. The experiment in a line: Long-term growth assay (crystal violet), C4-2. It counts as cell-based, human. To be noted: for growth of C4-2 cells (in words): 40 μM, 7 days with drug; for IC50: Homo sapiens, C4-2, 120 h, day 5, read-out: Day Five Effects on Cell line IC50 (μM) ± S.E.M., C4-2. The procedure:
as §1

Another series relates to cell growth in 2-D. The experiment in a line: 2-D growth assay. It counts as cell-based. To be noted: molar equivalence to the phenytoin IC50.
The test system of a further series is LNCaP. The series can be described thus: Long-term growth assay (crystal violet), LNCaP. It is filed as cell-based. To be noted: Homo sapiens, 120 h, day 5, read-out: Day Five Effects on Cell line IC50 (μM) ± S.E.M., LNCaP.
The next series has as its system PC3. The experiment in a line: Long-term growth assay (crystal violet), PC3. It counts as cell-based. To be noted: Homo sapiens, PC-3, 120 h; day 5; read-out: Day Five Effects on Cell line IC50 (μM) ± S.E.M., PC3. Here is the method:
as §1

Series [3] deals with all PCa cell lines tested (C4-2, DU145, PC-3, PC-3M). The experiment in a line: Long-term growth assay, panel of PCa cell lines. It counts as cell-based, human. Here is the method:
as §1

Series [4] relates to PC-3 cells. The series can be described thus: 3H-thymidine uptake (DNA synthesis) in PC-3 cells. Conditions: for inhibition at 1 µM / inhibition at 10 µM / inhibition at 20 µM / inhibition at 40 µM / inhibition at 100 µM: Homo sapiens, read-out: % Inhibition of PC3 Cells; for inhibition at 1 µM: PC-3, 1 μM; for inhibition at 10 µM: PC-3, 10 μM; for inhibition at 20 µM: PC-3, 20 μM; for inhibition at 40 µM: PC-3, 40 μM; for inhibition at 100 µM: PC-3, 100 μM; for effect on DNA synthesis (in words): dosages tested 1-100 μM. It is filed as cell-based, human. The procedure: The novel sodium channel blockers were assayed for activity against paired sets of cell lines with increasing metastatic potential, PC-3 and PC-3M (already androgen independent, AI), or increasing metastatic potential with increasing androgen independence, LNCaP and C4-2. DU145 was also included to provide another AI cell line with intermediate tumorigenicity between the LNCaP series and the PC-3 derivatives. This strategy allows an examination of at least three different genotypes for comparison of drug efficacy. […] The first assay used to screen these compounds was 3H-thymidine uptake in PC-3 cells. The cells were trypsinized, equal cell numbers were placed into each well and allowed to recover overnight.

The subject of series [5] is sodium channel (BTX site 2). The series can be described thus: 3H-BTX-B binding inhibition. Conditions: for IC50: 3H-BTX-B Inhibition Data. The source says: One assay used to screen compounds for modulators of sodium channel activity, is based on the use of the radioligand 3-[H]-BTX-B assay. BTX binds to site 2 on the channel protein and thus compounds that can compete with or inhibit BTX binding to the sodium channel are potential sodium channel inhibitors. This assay represents a facile tool to prescreen sodium channel binding before evaluating compounds in more rigorous functional assays such as through electrophysiology.

In another series the target is Nav1.5 (Homo sapiens, UniProt Q14524). The experiment in a line: Electrophysiology, sodium currents in CHO cells stably expressing Nav1.5.
Sequence of Nav1.5 (Q14524 whole entry): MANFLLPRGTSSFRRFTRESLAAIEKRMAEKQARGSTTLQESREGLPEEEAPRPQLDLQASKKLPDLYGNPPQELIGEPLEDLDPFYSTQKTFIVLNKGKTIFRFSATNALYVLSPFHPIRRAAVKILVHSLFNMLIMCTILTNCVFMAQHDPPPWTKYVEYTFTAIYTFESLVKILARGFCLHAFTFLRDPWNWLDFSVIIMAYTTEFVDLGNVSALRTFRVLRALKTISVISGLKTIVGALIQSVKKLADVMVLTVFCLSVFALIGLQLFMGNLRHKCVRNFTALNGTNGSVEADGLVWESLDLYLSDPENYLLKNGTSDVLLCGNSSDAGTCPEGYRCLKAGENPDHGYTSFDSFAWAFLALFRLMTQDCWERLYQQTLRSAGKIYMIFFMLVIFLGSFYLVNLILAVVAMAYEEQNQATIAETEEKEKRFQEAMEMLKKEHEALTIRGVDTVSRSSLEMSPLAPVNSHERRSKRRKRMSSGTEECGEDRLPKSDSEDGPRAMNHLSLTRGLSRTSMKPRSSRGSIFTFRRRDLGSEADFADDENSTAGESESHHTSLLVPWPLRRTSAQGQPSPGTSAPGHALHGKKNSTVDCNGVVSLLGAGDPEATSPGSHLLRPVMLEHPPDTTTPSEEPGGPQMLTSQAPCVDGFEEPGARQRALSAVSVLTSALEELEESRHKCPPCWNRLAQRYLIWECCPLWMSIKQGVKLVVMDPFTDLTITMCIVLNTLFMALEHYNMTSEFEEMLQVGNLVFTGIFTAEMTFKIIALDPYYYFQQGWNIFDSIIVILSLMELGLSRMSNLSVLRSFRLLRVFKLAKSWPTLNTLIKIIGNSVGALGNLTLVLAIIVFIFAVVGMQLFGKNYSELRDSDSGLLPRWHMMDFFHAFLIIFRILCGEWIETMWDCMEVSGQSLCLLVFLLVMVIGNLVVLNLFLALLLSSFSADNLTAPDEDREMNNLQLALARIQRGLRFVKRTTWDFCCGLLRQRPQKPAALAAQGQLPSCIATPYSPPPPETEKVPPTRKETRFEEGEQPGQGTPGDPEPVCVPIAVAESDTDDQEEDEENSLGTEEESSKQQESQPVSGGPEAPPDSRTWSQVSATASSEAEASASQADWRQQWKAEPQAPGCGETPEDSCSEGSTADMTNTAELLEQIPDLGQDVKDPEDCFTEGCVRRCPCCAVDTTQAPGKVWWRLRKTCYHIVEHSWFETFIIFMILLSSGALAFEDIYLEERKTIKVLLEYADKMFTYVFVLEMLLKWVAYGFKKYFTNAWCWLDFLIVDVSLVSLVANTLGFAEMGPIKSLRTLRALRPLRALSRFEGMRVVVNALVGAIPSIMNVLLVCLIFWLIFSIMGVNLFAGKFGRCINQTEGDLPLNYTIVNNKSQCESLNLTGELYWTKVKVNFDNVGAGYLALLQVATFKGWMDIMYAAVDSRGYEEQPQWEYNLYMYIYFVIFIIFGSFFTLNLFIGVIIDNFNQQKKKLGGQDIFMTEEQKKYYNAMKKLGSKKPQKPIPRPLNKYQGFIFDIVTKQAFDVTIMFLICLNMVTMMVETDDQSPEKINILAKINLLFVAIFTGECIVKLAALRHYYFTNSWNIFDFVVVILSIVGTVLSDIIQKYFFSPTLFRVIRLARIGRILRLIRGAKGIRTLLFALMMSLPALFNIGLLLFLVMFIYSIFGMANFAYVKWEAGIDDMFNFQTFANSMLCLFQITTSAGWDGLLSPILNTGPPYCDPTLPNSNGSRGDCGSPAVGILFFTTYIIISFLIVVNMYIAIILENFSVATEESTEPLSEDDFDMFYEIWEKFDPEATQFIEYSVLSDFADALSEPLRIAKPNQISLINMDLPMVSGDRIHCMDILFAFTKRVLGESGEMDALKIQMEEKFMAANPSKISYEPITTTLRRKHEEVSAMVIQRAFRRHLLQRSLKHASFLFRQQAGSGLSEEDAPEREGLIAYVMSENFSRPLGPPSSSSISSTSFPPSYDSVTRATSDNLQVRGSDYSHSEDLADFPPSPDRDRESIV
Another series concerns MAT-LyLu cells. To be noted: 6 µM; cited from earlier work.
Series [6] deals with PC-3 cells. To be noted: cited from earlier work.

Results on 7 molecules are retold here after US8350076B2, “Sodium channel blockers” (University of Virginia Patent Foundation, priority 2002, dated 2013).

The structures appear in SMILES notation. Where two headings read alike, the source gives them in different places. Marks after values point to notes of the source that are not given here.

By IC50 is commonly meant the concentration needed to halve the response being measured. By inhibition is commonly meant the change of the read-out against control, counted positive when it falls. As usually defined, the EC50 is the concentration that produces a half-maximal response.

As for `CCCCCCCC(O)(C(N)=O)c1cccc(Cl)c1` (stereo not shown) [Compound 1], the “inhibition in 3-D growth (SACF) as compared to phenytoin” value in series [1] was “approximately 87.2%”. The “Number of mice with impaired balance on the rotating rod/total # of animals tested” value in the series with mice (30 mg/kg i.p., 0.5 hours) was 0/4; in the series with mice (30 mg/kg i.p., 4.0 hours), 0/2; in the series with mice (100 mg/kg i.p., 0.25 hours) it was 0/4^a; in the series with mice (100 mg/kg i.p., 0.5 hours), 1/8; with mice (100 mg/kg i.p., 1.0 hours), 1/8; in the series with mice (300 mg/kg i.p., 0.5 hours), 3/4. In addition, the “Number of mice with impaired balance on the rotating rod/total # of animals tested” value in the series on mice (300 mg/kg i.p., 4.0 hours) is on record as 0/2. The tolerated dose result with mice (mice, i.p., acute) is recorded as “up to 300 mg/kg”. The IC50 was 56 ± 0.7 µM with DU-145; roughly 10 µM in [2] (Homo sapiens, C4-2, dose-response curve, read-out: IC50 for reducing PSA); 61.9 ± 0.1 µM with PC-3M; 51.3 ± 0.2 µM in the series with C4-2 cells; 72.2 ± 0.1 µM in the series with LNCaP; 66 ± 0.7 µM in the series on PC3. For the same molecule, the “decrease of PSA secretion on a per cell basis” value (shortened to “decrease … per cell basis”) in series [2] stood at 42.5%. In the series on C4-2 cells, the “growth of C4-2 cells (in words)” value is “remarkable inhibition of growth”. Moreover, in the series on cell growth in 2-D, the “inhibition in 2-D growth assays” value stood at 66.3%. Moreover, in series [3] (normalized to day 7 DMSO control), the “cells' growth, % of controls (maximum inhibition)” value is 20-25 % of controls.

`CCCCCCCC(O)(C(N)=O)c1ccc(Cl)cc1` (stereo not shown) [Compound 2]: in [1], the “enhanced inhibition using SACF, % of phenytoin” value is recorded as 41.5 % of phenyloin and the “inhibition in 3-D growth (SACF) as compared to phenytoin” value is roughly 62%. Besides, in the series with PC-3 cells [4], the inhibition at 1 µM was -3.61%, the inhibition at 10 µM was determined as 25.2%, the inhibition at 20 µM is 44.6% and the inhibition at 40 µM was determined as 48.9%. In the series on PC-3 cells [4], the inhibition at 100 µM amounted to 96.2% and the “effect on DNA synthesis (in words)” value is on record as “inhibited DNA synthesis better than phenyloin at all dosages tested”. Further, the half-maximal inhibitory concentration (IC50) in the series with DU-145 is 67.2 ± 0.1 µM. The “decrease … per cell basis” value in series [2] was determined as 41.8%. Further, the IC50 in the series with PC-3M amounted to 50 µM. For the same molecule, the half-maximal inhibitory concentration (IC50) in the series on C4-2 cells turned out to be 61.1 ± 0.1 µM. The “inhibition in 2-D growth assays” value in the series on cell growth in 2-D stood at 42.3%. The “inhibition of 3H-BTX-B binding in comparison to phenytoin” value in series [5] is “effective inhibition”. Further, the IC50 in the series with LNCaP amounted to 64.1 ± 4.3 µM. The 50% inhibitory concentration (IC50) in the series with PC3 is 66.8 ± 1.2 µM. In addition, the response at Nav1.5 was half-maximal at 12.7 ± 2.7 µM (EC50).

`CCCCCCCC(O)(C(N)=O)c1ccc(F)cc1` (stereo not shown) [Compound 9]: it took 34.2 ± 7.4 µM to reach a half-maximal effect at Nav1.5 (EC50).

With `CCCCCCCC1(c2ccccc2)NC(=O)NC1=O` (stereo not shown) [Compound 44], the “% Inhibition of PC3 Cells” value in the series on PC-3 cells [4] (40 μM) is given as 55.09%. For the same molecule, in the series with PC-3 cells [4], the inhibition at 1 µM was determined as 12.8%, the inhibition at 10 µM came out at 26.6%, the inhibition at 20 µM came to 32.7% and the inhibition at 40 µM came to 55%. Also, in the series with PC-3 cells [4], the inhibition at 100 µM amounted to 82% and the “effect on DNA synthesis (in words)” value is “inhibited DNA synthesis better than phenyloin at all dosages tested”. In addition, in the series on DU-145, the concentration for half-maximal inhibition (IC50) stood at 35.6 ± 2.6 µM. The “decrease … per cell basis” value in series [2] is 14.9%. Also, in the series with PC-3M, the IC50 came to 58.4 µM. Besides, in the series with C4-2 cells, the IC50 is 67.4 ± 1.3 µM. In [5], the “inhibition of 3H-BTX-B binding in comparison to phenytoin” value is on record as “effective inhibition” and the IC50 is 5 ± 1 µM. For the same molecule, the IC50 in the series with LNCaP was found to be 71.8 ± 1.8 µM. Also, the IC50 in the series on PC3 came to 66 ± 0.1 µM. Besides, on Nav1.5, the EC50 was 29.8 ± 4.2 µM. In addition, in series [3] (long-term growth assay), the “selectivity of growth inhibition (in words)” value was “cell selective inhibition of growth”.

Turning to `NC1=N[C@H](O)[C@H]2[C@H]3O[C@]4(O)O[C@@H]([C@@H](O)[C@@]2(N1)[C@@H]4O)[C@]3(O)CO` [TTX, Tetrodotoxin], the “inhibition of invasiveness of MAT-LyLu cells in vitro” value in the series on MAT-LyLu cells is listed as “up to 50%”. Also, the “reduction of invasiveness of PC-3 cells” value in the series on PC-3 cells [6] was 31%.

In the case of `CCN(CC)CC(=O)Nc1c(C)cccc1C` [lidocaine, reference compound], in the series with C4-2 cells, the “growth of C4-2 cells (in words)” value was “mildly stimulatory”.

Regarding `O=C1NC(=O)C(c2ccccc2)(c2ccccc2)N1` [phenytoin, reference compound], in series [1], the “inhibition of SACF compared to the DMSO/EtOH control plates” value turned out to be 25.7%. Besides, in the series on PC-3 cells [4], the inhibition at 1 µM was -23.8%, the inhibition at 10 µM is -13.9%, the inhibition at 20 µM was -21.8% and the inhibition at 40 µM is -12.5%. In addition, in the series on PC-3 cells [4], the inhibition at 100 µM amounted to 30.8% and the “effect on DNA synthesis (in words)” value is “stimulatory”. The inhibition at 100 µM in series [2] (Homo sapiens, C4-2, 100 μM) turned out to be 17.8%. The molecule further registered an IC50 in series [5] of 40 µM. The same molecule came in with an EC50 on Nav1.5 greater than 200 µM.
